Our source for the Ratio values is ChEMBL document CHEMBL1150456, “Synthesis of 2-O-heteroaroyl taxanes: evaluation of microtubule assembly promotion and cytotoxicity” (1995).

For one test, the target named is Tubulin (Bos taurus) (UniProt Q6B856+Q862L2+Q862F3). As to the kind of experiment: Concentration which causes polymerization of 50% of the tubulin present in 15 min at 37 degree C was tested in vitro relative to paclitaxel (1). Type of test: functional.
Another test has as its system B16. The test is described as follows: Concentration which produces 50% inhibition of proliferation of B16 melanoma cytotoxic cells after 40h of incubation was tested in vitro relative to paclitaxel (1). Type of test: functional, Mus musculus.

A value given as a limit tells only on which side of the number the result lay.

For the compound `CC(=O)O[C@H]1C(=O)[C@]2(C)[C@@H](O)CC3OC[C@@]3(OC(C)=O)[C@H]2[C@H](OC(=O)c2ccccn2)[C@]2(O)C[C@H](OC(=O)[C@H](O)[C@@H](NC(=O)c3ccccc3)c3ccccc3)C(C)=C1C2(C)C` (stereo partly drawn), the Ratio turned out to be 2.8 at Tubulin (Bos taurus) and 8.7 with B16.

With `CC(=O)O[C@H]1C(=O)[C@]2(C)[C@@H](O)CC3OC[C@@]3(OC(C)=O)[C@H]2[C@H](OC(=O)c2ccncc2)[C@]2(O)C[C@H](OC(=O)[C@H](O)[C@@H](NC(=O)c3ccccc3)c3ccccc3)C(C)=C1C2(C)C` (stereo partly drawn), the Ratio at Tubulin (Bos taurus) is 7.3; in the test on B16, over 36.

On to `CC(=O)O[C@H]1C(=O)[C@]2(C)[C@@H](O)CC3OC[C@@]3(OC(C)=O)[C@H]2[C@H](OC(=O)c2ccsc2)[C@]2(O)C[C@H](OC(=O)[C@H](O)[C@@H](NC(=O)c3ccccc3)c3ccccc3)C(C)=C1C2(C)C` (stereo partly drawn), for which the Ratio at Tubulin (Bos taurus) is 1.4; in the test with B16, 2.1.

Take `CC(=O)O[C@H]1C(=O)[C@]2(C)[C@@H](O)CC3OC[C@@]3(OC(C)=O)[C@H]2[C@H](OC(=O)c2cccn2C)[C@]2(O)C[C@H](OC(=O)[C@H](O)[C@@H](NC(=O)c3ccccc3)c3ccccc3)C(C)=C1C2(C)C` (stereo partly drawn): the Ratio at Tubulin (Bos taurus) and in the test with B16 was 2.6 in each case.

For `CC(=O)O[C@H]1C(=O)[C@]2(C)[C@@H](O)CC3OC[C@@]3(OC(C)=O)[C@H]2[C@H](OC(=O)c2cccnc2)[C@]2(O)C[C@H](OC(=O)[C@H](O)[C@@H](NC(=O)c3ccccc3)c3ccccc3)C(C)=C1C2(C)C` (stereo partly drawn), the Ratio on Tubulin (Bos taurus) was 4; in the test with B16 it was over 36.

Regarding `CC(=O)O[C@H]1C(=O)[C@]2(C)[C@@H](O)CC3OC[C@@]3(OC(C)=O)[C@H]2[C@H](OC(=O)c2ccco2)[C@]2(O)C[C@H](OC(=O)[C@H](O)[C@@H](NC(=O)c3ccccc3)c3ccccc3)C(C)=C1C2(C)C` (stereo partly drawn), the Ratio at Tubulin (Bos taurus) was found to be 2.4; in the test with B16, 14.

Consider `CC(=O)O[C@H]1C(=O)[C@]2(C)[C@@H](O)CC3OC[C@@]3(OC(C)=O)[C@H]2[C@H](OC(=O)c2cccs2)[C@]2(O)C[C@H](OC(=O)[C@H](O)[C@@H](NC(=O)c3ccccc3)c3ccccc3)C(C)=C1C2(C)C` (stereo partly drawn), for which the Ratio is 1.1 at Tubulin (Bos taurus) and 3.8 with B16.

Turning to `CC(=O)O[C@H]1C(=O)[C@@]2(C)[C@H]([C@H](OC(=O)c3ccccc3)[C@]3(O)C[C@H](OC(=O)[C@H](O)[C@@H](NC(=O)c4ccccc4)c4ccccc4)C(C)=C1C3(C)C)[C@]1(OC(C)=O)CO[C@@H]1C[C@@H]2O` [PACLITAXEL], the Ratio on Tubulin (Bos taurus) and with B16 was 1 each time.

Turning to `CC(=O)O[C@H]1C(=O)[C@]2(C)[C@@H](O)CC3OC[C@@]3(OC(C)=O)[C@H]2[C@H](OC(=O)c2ccoc2)[C@]2(O)C[C@H](OC(=O)[C@H](O)[C@@H](NC(=O)c3ccccc3)c3ccccc3)C(C)=C1C2(C)C` (stereo partly drawn), the Ratio at Tubulin (Bos taurus) came to 2.1; in the test on B16, 8.2.
